± gives the expanded uncertainty stated by the source.
Test: xn = mol fraction of the nth substance listed
Details: Liquid; for speed of sound: Pulse-echo method

With `CCCCCCCCCCCC` [dodecane] + CCCCCCC the speed of sound (298.15 K, 91180 kPa, x2 = 0.5003) was 1642.1 ± 2.6 m/s, the speed of sound (298.15 K, 101320 kPa, x2 = 0.1014) was 1704.4 ± 2.6 m/s and the speed of sound (298.15 K, 101320 kPa, x2 = 0.4999) was 1676 ± 2.6 m/s. It also gave a speed of sound (298.15 K, 101320 kPa, x2 = 0.5003) of 1676.4 ± 2.6 m/s, a speed of sound (298.16 K, 101 kPa, x2 = 0) of 1278.9 ± 1.6 m/s and a speed of sound (298.16 K, 101 kPa, x2 = 0.3002) of 1246.5 ± 1.6 m/s. The speed of sound (298.16 K, 101 kPa, x2 = 0.6) was 1205.1 ± 1.6 m/s, the speed of sound (298.16 K, 101 kPa, x2 = 0.8995) was 1151.9 ± 1.6 m/s and the mass density (298.16 K, 101 kPa, x2 = 0.3996) was 726.184 ± 0.66 kg/m3. For the same compound, the mass density (298.16 K, 101 kPa, x2 = 0.6) was 713.735 ± 0.67 kg/m3, the speed of sound (298.16 K, 15200 kPa, x2 = 0) was 1365.9 ± 2.4 m/s and the speed of sound (298.16 K, 15200 kPa, x2 = 0.3007) was 1336 ± 2.4 m/s. It also gave a speed of sound (298.16 K, 15200 kPa, x2 = 0.4999) of 1314.6 ± 2.4 m/s, a speed of sound (298.16 K, 15200 kPa, x2 = 0.7007) of 1286.6 ± 2.4 m/s and a speed of sound (298.16 K, 30390 kPa, x2 = 0) of 1440 ± 2.4 m/s. For the same compound, the speed of sound (298.16 K, 30390 kPa, x2 = 0.3007) was 1413 ± 2.4 m/s, the speed of sound (298.16 K, 30390 kPa, x2 = 0.7007) was 1368.2 ± 2.4 m/s and the speed of sound (298.16 K, 45580 kPa, x2 = 0) was 1507 ± 2.4 m/s. It also gave a speed of sound (298.16 K, 45590 kPa, x2 = 0.3007) of 1481.9 ± 2.4 m/s, a speed of sound (298.16 K, 60790 kPa, x2 = 0) of 1568 ± 2.5 m/s and a speed of sound (298.16 K, 75990 kPa, x2 = 0) of 1625.2 ± 2.5 m/s. The speed of sound (298.16 K, 75990 kPa, x2 = 0.3007) was 1602.7 ± 2.5 m/s, the speed of sound (298.16 K, 91180 kPa, x2 = 0) was 1677.7 ± 2.5 m/s and the speed of sound (298.16 K, 91180 kPa, x2 = 0.3007) was 1656.7 ± 2.5 m/s. The speed of sound (298.16 K, 91180 kPa, x2 = 0.7007) was 1623.2 ± 2.6 m/s, the speed of sound (298.16 K, 101320 kPa, x2 = 0) was 1711.1 ± 2.6 m/s and the speed of sound (298.16 K, 101320 kPa, x2 = 0.3007) was 1690.7 ± 2.6 m/s. The speed of sound (298.16 K, 101320 kPa, x2 = 0.7007) was 1658.1 ± 2.6 m/s, the speed of sound (298.17 K, 101 kPa, x2 = 0.7002) was 1188.8 ± 1.6 m/s and the speed of sound (298.17 K, 101 kPa, x2 = 0.8) was 1171.2 ± 1.6 m/s. It also gave a speed of sound (298.17 K, 15200 kPa, x2 = 0.1014) of 1356.6 ± 2.4 m/s, a speed of sound (298.17 K, 15200 kPa, x2 = 0.8496) of 1264.5 ± 2.4 m/s and a speed of sound (298.17 K, 30390 kPa, x2 = 0.8496) of 1348.6 ± 2.4 m/s. For the same compound, the speed of sound (298.17 K, 45590 kPa, x2 = 0.8496) was 1422.9 ± 2.4 m/s, the speed of sound (298.17 K, 60790 kPa, x2 = 0.8496) was 1489.9 ± 2.5 m/s and the speed of sound (298.17 K, 75990 kPa, x2 = 0.8496) was 1551 ± 2.5 m/s. The speed of sound (298.17 K, 91180 kPa, x2 = 0.8496) was 1608.3 ± 2.6 m/s, the speed of sound (298.17 K, 101320 kPa, x2 = 0.8496) was 1644.1 ± 2.6 m/s and the speed of sound (298.18 K, 101 kPa, x2 = 0.1007) was 1268.9 ± 1.6 m/s. The speed of sound (298.18 K, 101 kPa, x2 = 0.3996) was 1233.8 ± 1.6 m/s, the speed of sound (298.18 K, 101 kPa, x2 = 0.5002) was 1219.9 ± 1.6 m/s and the speed of sound (298.18 K, 30390 kPa, x2 = 0.1014) was 1431.7 ± 2.4 m/s. It also gave a speed of sound (298.19 K, 101 kPa, x2 = 0.2001) of 1258.1 ± 1.6 m/s, a speed of sound (303.12 K, 15200 kPa, x2 = 0.9391) of 1228.3 ± 2.4 m/s and a speed of sound (303.12 K, 30390 kPa, x2 = 0.9391) of 1315.5 ± 2.4 m/s. It also gave a speed of sound (303.12 K, 30390 kPa, x2 = 0.97) of 1312 ± 2.4 m/s, a speed of sound (303.12 K, 45590 kPa, x2 = 0.9391) of 1392 ± 2.4 m/s and a speed of sound (303.12 K, 45590 kPa, x2 = 0.97) of 1388.9 ± 2.4 m/s. The speed of sound (303.12 K, 60790 kPa, x2 = 0.9391) was 1461.1 ± 2.5 m/s, the speed of sound (303.12 K, 60790 kPa, x2 = 0.97) was 1458.4 ± 2.5 m/s and the speed of sound (303.12 K, 75990 kPa, x2 = 0.9391) was 1523.8 ± 2.5 m/s. For the same compound, the speed of sound (303.12 K, 75990 kPa, x2 = 0.97) was 1521.5 ± 2.5 m/s, the speed of sound (303.12 K, 91180 kPa, x2 = 0.9391) was 1582 ± 2.6 m/s and the speed of sound (303.12 K, 91180 kPa, x2 = 0.97) was 1579.9 ± 2.6 m/s. For the same compound, the speed of sound (303.12 K, 101320 kPa, x2 = 0.9391) was 1618.9 ± 2.6 m/s, the speed of sound (303.12 K, 101320 kPa, x2 = 0.97) was 1616.9 ± 2.6 m/s and the speed of sound (303.13 K, 15200 kPa, x2 = 0.97) was 1224 ± 2.4 m/s. The speed of sound (303.13 K, 101320 kPa, x2 = 0.1014) was 1691.2 ± 2.6 m/s, the speed of sound (303.13 K, 101320 kPa, x2 = 0.5003) was 1663 ± 2.6 m/s and the speed of sound (303.14 K, 101 kPa, x2 = 0.6) was 1184.8 ± 1.6 m/s. For the same compound, the speed of sound (303.14 K, 101 kPa, x2 = 0.8995) was 1130.7 ± 1.6 m/s, the speed of sound (303.14 K, 15200 kPa, x2 = 0.1014) was 1339.1 ± 2.4 m/s and the speed of sound (303.14 K, 15200 kPa, x2 = 0.4999) was 1296.5 ± 2.4 m/s.

Reference: the NIST ThermoML archive (doi:10.1016/j.jct.2008.05.014)
